Data taken from patent US20240122926A1, “APELIN RECEPTOR MODULATORS FOR TREATING MUSCLE CONDITIONS” (priority 2022, published 2024).

Key:
Assay type in all cases: in vivo, mouse
aged (18-month-old) mice [1] = test: Cardiotoxin (CTX)-induced muscle injury, transcript levels, aged mice; details: for MyoD transcript level: 3 and 7 days
Experimental: (§1) Mice were i.p injected with buprenorphine (Centravet, 0.1 mg/kg) 30 minutes before injury and the day after. The day of the injury, mice were anesthetized with isoflurane inhalation and hindlimbs were shaved. Then, 10 μM of cardiotoxin (CTX, Latoxan, #L8102) was injected through two injections of 25 μl into the left tibialis muscle and two injections of 50 μl into the left gastrocnemius muscle, using a 22-gauge needle (Hamilton). Mice were euthanized 3 and 7 days after injury by cervical dislocation, muscles (PBS- and CTX-injected) were cut in two parts, one being snap frozen into liquid nitrogen for total RNA extraction and the other part being embedded into OCT, frozen in isopentane cooled with liquid nitrogen for histological analysis.

aged (18-month-old) mice [2] = test: Cardiotoxin (CTX)-induced muscle injury, histology of tibialis (cross-sectional area, centrally nucleated fibers)
Experimental: Impairment of muscle regeneration can contribute to age-related muscle weakness. This is particularly true in aged individuals who engage in physical activity. Exercise-induced muscle hypertrophy is linked to the capacity of muscle stem cells to be activated and promote regeneration.
Mice were i.p injected with buprenorphine (Centravet, 0.1 mg/kg) 30 minutes before injury and the day after. The day of the injury, mice were anesthetized with isoflurane inhalation and hindlimbs were shaved. […]
Mouse muscle samples were dissected and cryopreserved in OCT frozen in liquid nitrogen cooled isopentane. […] Images were captured using a digital camera (Nanozoomer, Hamamatsu) attached to a motorized fluorescence microscope or using Olympus VS120 Virtual Microscopy Slide Scanning System. The area covered by eMHC-positive fibers and degenerated area was determined manually across the entire sections using the VS-ASW FL software measurement tools. The size of myofibers with central nuclei was calculated from laminin/DAPI staining on all fibers of the section and area determination were performed across the entire sections, using an automated image processing algorithm developed internally using the MetaXpress software (Molecular Devices).

young (3-month-old) mice = test: Cardiotoxin (CTX)-induced muscle injury, transcript levels, young mice
Experimental: as §1

[3] = tibialis anterior, 7 days, both BGE-105 dosages

CSCC[C@H](NC(=O)[C@@H]1CCCN1C(=O)CNC(=O)[C@H](CCCCN)NC(=O)[C@H](Cc1c[nH]cn1)NC(=O)[C@H](CO)NC(=O)[C@H](CC(C)C)NC(=O)[C@H](CCCNC(=N)N)NC(=O)[C@@H]1CCCN1C(=O)[C@H](CCCNC(=N)N)NC(=O)[C@@H]1CCC(=O)N1)C(=O)N1CCC[C@H]1C(=O)N[C@@H](Cc1ccccc1)C(=O)O [Pyr^1-Apelin-13]
non-significant increase: MyHC8 transcript level (young (3-month-old) mice; gastrocnemius, 3 days, both BGE-105 dosages)
does not show a change: MyHC8 transcript level (aged (18-month-old) mice [1]; gastrocnemius, any time point)
no difference: Myf5 transcript level (young (3-month-old) mice; tibialis, 3 or 7 days) | MyoG transcript level (young (3-month-old) mice; tibialis, 3 or 7 days)
no significant increase: MyoD transcript level (young (3-month-old) mice; tibialis, 3 or 7 days)
significant increase: MyoD transcript level (aged (18-month-old) mice [1]; gastrocnemius, both BGE-105 dosages) | MyoD transcript level (aged (18-month-old) mice [1]; tibialis anterior, both BGE-105 dosages) | Pax7 transcript level (aged (18-month-old) mice [1]; tibialis anterior, 7 days, BGE-105 50 and 200 mg/kg/day P.O., apelin 0.5 mol/kg/day injection) | MyHC3 transcript level (aged (18-month-old) mice [1]; [3]) | MyoG transcript level (aged (18-month-old) mice [1]; [3]) | cross-sectional area of the tibialis (aged (18-month-old) mice [2]; 3 and 7 days post cardiotoxin, BA1 (50 mg/kg/d) and BA2 (200 mg/kg/d)) | amount of centrally nucleated myofibers (CNM) (aged (18-month-old) mice [2]; 18-month-old mice after cardiotoxin, significant at the higher BGE-105 dose (200 mg/kg/day))
no significant change: Myf5 transcript level (aged (18-month-old) mice [1]; gastrocnemius, 3 or 7 days) | MyoG transcript level (aged (18-month-old) mice [1]; gastrocnemius, 3 or 7 days) | Pax7 transcript level (aged (18-month-old) mice [1]; gastrocnemius, 3 or 7 days) | MyHC3 transcript level (young (3-month-old) mice; tibialis, 3 or 7 days) | MyHC8 transcript level (young (3-month-old) mice; tibialis, 3 or 7 days)
no change: Myf5 transcript level (young (3-month-old) mice; gastrocnemius, 3 or 7 days) | MyoD transcript level (young (3-month-old) mice; gastrocnemius, 3 or 7 days) | MyoG transcript level (young (3-month-old) mice; gastrocnemius, 3 or 7 days) | Pax7 transcript level (young (3-month-old) mice; gastrocnemius, 3 or 7 days) | Pax7 transcript level (young (3-month-old) mice; tibialis, 3 or 7 days)
